Read-outs that look alike come from different tables or passages of the source.
Experiments:
[1] = system: MM cell lines; assay: MM cell line panel proliferation (Cell Titer Glo, four days); type: cell-based
Method: (§1) Compound A was tested against a THL cell line (VAL), and a DEL cell line (U2932). An expanded panel of DHL cell lines were tested for sensitivity to Compound A. Ex vivo patient samples of THL and MYC-amplified DLBCL were tested with Compound A. Sensitivity of THL and MYC-driven DLBCL in both in vitro and ex vivo models were compared with clinical reversible menin inhibitors. Compound A was tested against a panel of MM cell lines and ex vivo MM patient samples of p53del, 13qdel, and relapsed/refractory cases.
(§2) DLBCL cell line TOLEDO was cultured in the presence of Compound A or clinical reversible menin inhibitors for six and fourteen hours. Menin protein expression was reduced up to 60% at 1 μM by Compound A after fourteen hours compared to clinical reversible inhibitors at <20% at similar concentrations. Menin protein expression was measured by the Wes system and analyzed using the Compass software (automated western blotting, Protein Simple). Signal was normalized to GAPDH and referenced to DMSO control (FIG. 36E). DLBCL and MM cell lines were cultured with Compound A, bortezomib (PS-341), or DMSO for four days and cell proliferation was measured by Cell Titer Glo. Ex vivo studies of DLBCL and MM models were conducted by measurement of cell proliferation (Cell Titer Glo) after six days of treatment with Compound A, PS-341, or DMSO control.

[2] = system: KRAS mutated CRC, NSCLC and pancreatic cancer cell lines; assay: Proliferation of KRAS mutated cell lines (CellTiter-Glo, four days); type: cell-based, human; conditions: for GI50: Homo sapiens, Pancreatic cancer cell
Method: The inhibitory effect on cell proliferation was investigated in the human pancreas KRAS mutated cell lines MIA PaCa-2, HuP-T4, HPAF-II, human lung KRAS mutated cell line NCI-H358, and human colon KRAS mutated cell lines SW837, SW60, and NCI-H747. […] Cells were grown by adhering to culture flasks, and maintained at 70%-80% confluency.
ATP is present in all metabolically active cells and is considered as a marker for viable cells. […] The cell proliferation assay was performed using a 96-well plate format.
Eight concentrations of test compound were assessed in duplicate for each experimental run. 100% cell proliferation is represented by the untreated cells (0.2% DMSO).
200 μL of cell suspension were added to each well of a 96-well plate.
Cell viability was measured using CellTiter Glo. […] Cell viability was measured using CellTiter Glo.

[3] = system: MM patient-derived bone marrow mononuclear cells (BMMCs); assay: Ex vivo MM patient-derived bone marrow mononuclear cells (Cell Titer Glo, six days); type: cell-based; conditions: Homo sapiens, BMMC; panel of newly diagnosed and R/R ex vivo MM samples, single agent
Method: as §1, §2

[4] = system: DB; assay: DLBCL cell line proliferation (Cell Titer Glo, four days): DB; type: cell-based; conditions: DHL
Method: as §2

[5] = system: U2932; assay: DLBCL cell line proliferation (Cell Titer Glo, four days): U2932; type: cell-based; conditions: U2932, DEL-ABC, MYC/BCL2 Overexpression
Method: as §2

[6] = system: human pancreatic islet beta cells; assay: Beta cell proliferation in human islet microtissues; type: cell-based
Method: Human islet microtissues were aggregated for 5 days and then released into ultra-low attachment plates. Half of the plates were maintained in standard culture medium (5.5 mM glucose), and half were cultured in high-glucose culture medium (GTX, 8 mM glucose) starting at Day 6, for the duration of the whole experiment. Starting on Day 9 (after 3 days of GTX pre-treatment for the relevant plates), dosing with compounds was initiated, using a Tecan D300e Digital Dispenser. DMSO was normalized by volume across all wells. Media were exchanged and compounds were redosed every 2-3 days throughout the experiment. Compound dosing was randomized; to avoid compound cross-contamination between wells, all medium exchanges were performed using 96-well deep well plates with pipette tip exchange.
FIG. 32 provides human pancreatic islet beta cell proliferation on Day 14 and Day 21. In FIG. 32, A is ATP content; B is proliferating beta cell fraction; and C is beta cell fraction. Upper graphs are standard media, and lower graphs are high glucose media. […]
Individual islet microtissues can be cultured in 96-well culture plates and maintained in the presence of Compound 10, a representative irreversible menin-MLL inhibitor, at the appropriate concentration. […] Following 2 or more weeks of culturing, proliferation of beta cells is monitored via immunofluorescence staining for appropriate markers. […]

## C=CC(=O)N[C@@H]1CCCN(Cc2ccnc(C(=O)Nc3ccc(-c4cc5c(N6CCOCC6)ncnc5[nH]4)cc3)c2)C1 [Compound A, N-[4-[4-(4-morpholinyl)-7H-pyrrolo[2,3-d]pyrimidin-6-yl]phenyl]-4-[[3(R)-[(1-oxo-2-propen-1-yl)amino]-1-piperidinyl]methyl]-2-pyridinecarboxamide]
[1]; MM cell lines
  cell lethality: > 99%
[1]; MM cell lines harboring mutations in TP53, KRAS, and NRAS, 1 μM exposure, single agent
  growth inhibition: 100%
[2]; the 31st table c1, read-out: KRAS G12C GI50 (μM) NSCLC (8)
  GI50: 0.36 to 0.57 µM
[2]; the 31st table c2, read-out: KRAS G12D GI50 (μM) Pancreatic (1)
  GI50: 0.43 µM
[2]; the 31st table c3, read-out: KRAS G13D GI50 (μM) CRC (1)
  GI50: 0.57 µM
[2]; the 31st table c4, read-out: KRAS G12V GI50 (μM) NSCLC (1)
  GI50: 0.29 µM
[2]; the 31st table c6, read-out: GI50 Summary Tumor Type
  GI50: 0.42 µM
[2]; the 31st table c7 (second block of heads), read-out: KRAS G12C GI50 (μM) NSCLC (8)
  GI50: 0.34 µM
[2]; the 31st table c8 (second block of heads), read-out: KRAS G12D GI50 (μM) Pancreatic (1)
  GI50: 0.37 to 0.57 µM
[2]; the 31st table c9 (second block of heads), read-out: KRAS G13D GI50 (μM) CRC (1)
  GI50: 0.45 µM
[2]; the 31st table c10 (second block of heads), read-out: KRAS G12V GI50 (μM) NSCLC (1)
  GI50: 1.6 µM
[2]; all cancer cell types tested
  growth inhibition of KRAS-mutated cell lines compared to a known KRAS therapeutic: significantly greater growth inhibition
[2]; most of fourteen CRC, NSCLC, pancreatic KRAS mutated cell lines, four-day treatment
  inhibition of growth: > 90%
[2]; seven of ten KRAS G12C NSCLC cell lines
  inhibition of cell viability: ≥ 90%
[2]; the 31st table c10 (second block of heads)
  KRAS G12V GI50 (μM) NSCLC (1): LR (Limited Response (LR) = % growth inhibition <30%)
[3]
  IC50: 100 to 300 nM
[4]; MYC/BCL2
  Average % Max Inhibition by Compound A: 98.5%
[4]; Homo sapiens, MYC/BCL2, read-out: Average IC50 ± Standard Deviation
  IC50: 407 ± 67 nM
[5]; Homo sapiens, read-out: Average IC50 ± Standard Deviation
  IC50: 370 ± 12 nM
[5]
  Average % Max Inhibition by Compound A: 92.4%
[6]; Day 14 and Day 21, compared to control
  human pancreatic islet beta cell proliferation (proliferating beta cell fraction): induced human pancreatic islet beta cells substantially compared to control
[6]; glucose stress (8 mM glucose) vs standard glucose (5.5 mM)
  beta-cell proliferation: dose dependent increase in beta-cell proliferation under glucose stress condition, but not under standard glucose conditions
